Measured values from patent US9238656B2, “Imidazo[4,5-b]pyridine derivatives as ALK and JAK modulators for the treatment of proliferative disorders” (priority 2012, dated 2016).

Tests used:
[1] = target: baculovirus-expressed ALK (Homo sapiens, UniProt Q9UM73); assay: ALK kinase inhibition, TRF/ELISA; type: biochemical; settings: read-out: ALK Potency
How it was run: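 Eu-PT66 anti-phosphotyrosine TRF read-out measured phosphorylation of plate-bound GST-PLC-γ (coated at 10 μg/mL). The phosphorylation was driven by 30 ng/mL ALK for 15 minutes at 37° C.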

[2] = target: baculovirus-expressed JAK2 kinase (Homo sapiens, UniProt O60674); assay: biochemical; settings: 0.2 μM ATP; read-out: JAK2 Potency
How it was run: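 IC50 derived by variable-slope sigmoidal fit of percent inhibition against log compound concentration. Baculovirus-expressed JAK2 (15 ng/mL) phosphorylated a plate-bound biotinylated 15-mer peptide for 20 min at room temperature; detection by time-resolved fluorescence.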

Chain of baculovirus-expressed JAK2 kinase (O60674 whole entry): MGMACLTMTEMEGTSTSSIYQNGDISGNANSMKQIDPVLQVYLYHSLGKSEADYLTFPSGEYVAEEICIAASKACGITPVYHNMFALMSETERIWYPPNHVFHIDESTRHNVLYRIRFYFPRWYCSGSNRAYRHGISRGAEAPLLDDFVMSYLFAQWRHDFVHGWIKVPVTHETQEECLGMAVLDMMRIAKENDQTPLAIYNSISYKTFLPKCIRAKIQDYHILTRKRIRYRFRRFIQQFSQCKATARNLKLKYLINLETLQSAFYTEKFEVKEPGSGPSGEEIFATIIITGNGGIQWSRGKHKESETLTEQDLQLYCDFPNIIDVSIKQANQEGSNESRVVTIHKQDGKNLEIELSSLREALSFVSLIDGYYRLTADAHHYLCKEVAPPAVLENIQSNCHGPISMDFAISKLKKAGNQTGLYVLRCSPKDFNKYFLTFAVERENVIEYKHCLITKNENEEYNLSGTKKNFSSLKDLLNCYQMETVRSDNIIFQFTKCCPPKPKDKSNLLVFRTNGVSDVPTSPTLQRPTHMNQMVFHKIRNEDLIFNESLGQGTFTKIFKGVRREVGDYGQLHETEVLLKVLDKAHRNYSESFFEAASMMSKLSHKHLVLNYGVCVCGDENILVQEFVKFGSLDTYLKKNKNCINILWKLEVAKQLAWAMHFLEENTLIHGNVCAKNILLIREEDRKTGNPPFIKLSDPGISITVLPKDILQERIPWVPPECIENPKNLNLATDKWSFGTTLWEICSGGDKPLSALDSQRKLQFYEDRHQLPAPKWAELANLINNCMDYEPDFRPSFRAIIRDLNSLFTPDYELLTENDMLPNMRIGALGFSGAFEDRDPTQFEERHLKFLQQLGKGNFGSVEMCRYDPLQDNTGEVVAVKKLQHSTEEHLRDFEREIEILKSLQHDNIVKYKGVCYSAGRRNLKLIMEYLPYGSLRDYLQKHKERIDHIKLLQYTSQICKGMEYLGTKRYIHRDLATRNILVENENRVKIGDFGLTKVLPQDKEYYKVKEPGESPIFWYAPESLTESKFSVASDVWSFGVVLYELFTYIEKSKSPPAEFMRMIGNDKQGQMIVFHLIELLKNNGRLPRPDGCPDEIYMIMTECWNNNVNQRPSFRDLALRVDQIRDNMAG
Chain of baculovirus-expressed ALK (Q9UM73 19-1620): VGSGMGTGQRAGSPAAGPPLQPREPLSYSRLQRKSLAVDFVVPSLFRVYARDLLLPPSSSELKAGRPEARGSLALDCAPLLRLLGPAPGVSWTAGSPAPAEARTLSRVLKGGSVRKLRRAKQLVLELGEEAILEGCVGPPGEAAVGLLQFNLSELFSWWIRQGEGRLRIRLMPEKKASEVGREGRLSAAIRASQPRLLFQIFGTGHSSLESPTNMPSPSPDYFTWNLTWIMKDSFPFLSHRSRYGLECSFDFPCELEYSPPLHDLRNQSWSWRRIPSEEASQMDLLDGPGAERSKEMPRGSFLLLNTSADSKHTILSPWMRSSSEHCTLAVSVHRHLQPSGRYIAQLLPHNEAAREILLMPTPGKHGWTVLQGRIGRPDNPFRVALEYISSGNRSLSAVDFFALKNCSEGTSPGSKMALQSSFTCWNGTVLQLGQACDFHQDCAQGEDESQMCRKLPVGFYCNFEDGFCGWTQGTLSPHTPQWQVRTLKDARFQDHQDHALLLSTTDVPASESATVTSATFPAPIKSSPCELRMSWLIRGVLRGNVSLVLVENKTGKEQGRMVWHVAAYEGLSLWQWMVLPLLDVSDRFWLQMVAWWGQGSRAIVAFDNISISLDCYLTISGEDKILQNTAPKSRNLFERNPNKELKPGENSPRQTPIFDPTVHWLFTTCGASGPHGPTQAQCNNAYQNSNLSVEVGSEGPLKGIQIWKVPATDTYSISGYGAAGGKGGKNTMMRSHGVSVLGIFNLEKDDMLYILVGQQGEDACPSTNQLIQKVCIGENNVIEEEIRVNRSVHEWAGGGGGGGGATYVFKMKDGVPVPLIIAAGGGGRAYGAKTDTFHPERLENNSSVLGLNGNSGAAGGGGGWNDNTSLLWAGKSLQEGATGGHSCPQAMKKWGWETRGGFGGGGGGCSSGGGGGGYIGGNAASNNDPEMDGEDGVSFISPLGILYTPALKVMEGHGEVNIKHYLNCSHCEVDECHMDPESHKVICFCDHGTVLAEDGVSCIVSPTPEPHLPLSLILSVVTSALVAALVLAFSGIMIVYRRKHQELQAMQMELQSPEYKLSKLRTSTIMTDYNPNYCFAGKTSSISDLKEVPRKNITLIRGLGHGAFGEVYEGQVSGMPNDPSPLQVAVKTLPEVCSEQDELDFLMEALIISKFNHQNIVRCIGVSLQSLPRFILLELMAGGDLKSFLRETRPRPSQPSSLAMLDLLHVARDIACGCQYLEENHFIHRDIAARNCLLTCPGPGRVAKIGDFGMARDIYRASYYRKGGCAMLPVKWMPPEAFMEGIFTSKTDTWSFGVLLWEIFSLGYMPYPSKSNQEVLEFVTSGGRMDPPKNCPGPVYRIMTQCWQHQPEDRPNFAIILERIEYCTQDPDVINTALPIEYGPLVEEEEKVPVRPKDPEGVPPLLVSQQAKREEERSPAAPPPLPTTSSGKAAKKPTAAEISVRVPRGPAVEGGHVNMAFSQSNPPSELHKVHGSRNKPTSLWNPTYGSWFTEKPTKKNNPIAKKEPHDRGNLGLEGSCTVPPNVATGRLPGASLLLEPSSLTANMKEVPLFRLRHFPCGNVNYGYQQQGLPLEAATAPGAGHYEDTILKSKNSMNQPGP

SMILES	IC50 [1] [nM]	IC50 [2] [nM]	melting point [°C]
CN1CCN(c2ccc(-c3nc4c(N[C@H]5[C@@H](C(N)=O)[C@@H]6C=C[C@H]5C6)ccnc4[nH]3)cc2)CC1 [Compound LXXXVIII, (1S,2S,3R,4R)-3-{2-[4-(4-Methyl-piperazin-1-yl)-phenyl]-3H-imidazo[4,5-b]pyridin-7-ylamino}-bicyclo[2.2.1]hept-5-ene-2-carboxylic acid amide]	1000 to 10000	1000 to 10000	220 to 222
COc1cc(N2CCN(C)CC2)ccc1-c1nc2c(N[C@H]3[C@@H](C(N)=O)[C@@H]4C=C[C@H]3C4)ccnc2[nH]1 [Compound XCV, (1S,2S,3R,4R)-3-{2-[2-Methoxy-4-(4-methyl-piperazin-1-yl)-phenyl]-3H-imidazo[4,5-b]pyridin-7-ylamino}-bicyclo[2.2.1]hept-5-ene-2-carboxylic acid amide]	1000 to 10000	1000 to 10000	185 to 195
NC(=O)[C@@H]1[C@H](Nc2ccnc3[nH]c(-c4ccc(N5CCOCC5)cc4)nc23)[C@H]2C=C[C@@H]1C2 [Compound LXXXIX, (1S,2S,3R,4R)-3-[2-(4-Morpholin-4-yl-phenyl)-3H-imidazo[4,5-b]pyridin-7-ylamino]-bicyclo[2.2.1]hept-5-ene-2-carboxylic acid amide]	> 10000	1000 to 10000	240 to 244
COC[C@H](O)CN1CCC(c2ccc(-c3nc4c(N[C@H]5[C@@H](C(N)=O)[C@@H]6C=C[C@H]5C6)c(Cl)cnc4[nH]3)c(OC)c2)CC1 [Compound LIV]	< 100	< 100	116 to 122
COc1cc(CN2CCN(C[C@@H](C)O)CC2)ccc1-c1nc2c(N[C@H]3[C@@H](C(N)=O)[C@@H]4C=C[C@H]3C4)c(Cl)cnc2[nH]1 [Compound XLIV, (1S,2S,3R,4R)-3-(6-Chloro-2-{4-[4-((R)-2-hydroxypropyl)-piperazin-1-ylmethyl]-2-methoxyphenyl}-3H-imidazo[4,5-b]pyridine-7-ylamino)-bicyclo[2.2.1]hept-5-ene-2-carboxylic acid amide]	< 100	< 100	157 to 159
COc1cc(C2CCN(C[C@@H](O)CO)CC2)ccc1-c1nc2c(N[C@H]3[C@@H](C(N)=O)[C@@H]4C=C[C@H]3C4)c(Cl)cnc2[nH]1 [Compound CXVIII, (1S,2S,3R,4R)-3-(6-Chloro-2-{4-[1-((R)-2,3-dihydroxy-propyl)-piperidin-4-yl]-2-methoxy-phenyl}-3H-imidazo[4,5-b]pyridin-7-ylamino)-bicyclo[2.2.1]hept-5-ene-2-carboxylic acid amide]	< 100	< 100	209 to 211
NC(=O)[C@@H]1[C@H](Nc2c(Cl)cnc3[nH]c(-c4cccc(C(=O)N5CCNC(C(=O)O)C5)c4)nc23)[C@H]2C=C[C@@H]1C2 (stereo partly drawn) [Compound CCXXV, 4-(3-(7-((1R,2R,3S,4S)-3-carbamoylbicyclo[2.2.1]hept-5-en-2-ylamino)-6-chloro-3H-imidazo[4,5-b]pyridine-2-yl)benzoyl)piperazine-2-carboxylic acid]	100 to 1000	< 100	261
COc1cc(CN2CCN(C(C)=O)CC2)ccc1-c1nc2c(N[C@H]3[C@@H](C(N)=O)[C@@H]4C=C[C@H]3C4)c(Cl)cnc2[nH]1 [Compound LI]	< 100	< 100	109 to 113

The next lines start with the values.

IC50 [1] [nM]	IC50 [2] [nM]	melting point [°C]	SMILES
< 100	< 100	218 to 220	COc1cc(N(C)C)ccc1-c1nc2c(N[C@H]3[C@@H](C(N)=O)[C@@H]4C=C[C@H]3C4)c(Br)cnc2[nH]1 [Compound LXXXIV, (1S,2S,3R,4R)-3-[6-Bromo-2-(4-dimethylamino-2-methoxy-phenyl)-3H-imidazo[4,5-b]pyridin-7-ylamino]-bicyclo[2.2.1]hept-5-ene-2-carboxylic acid amide]
1000 to 10000	1000 to 10000	150	NC(=O)[C@@H]1[C@H](Nc2c(Br)cnc3[nH]c(-c4cccnc4N4CCOCC4)nc23)[C@H]2C=C[C@@H]1C2 [Compound CII, (1S,2S,3R,4R)-3-[6-Bromo-2-(2-morpholin-4-yl-pyridin-3-yl)-3H-imidazo[4,5-b]pyridin-7-ylamino]-bicyclo[2.2.1]hept-5-ene-2-carboxylic acid amide]
< 100	< 100	133 to 137	COc1c(CN2CCOCC2)cccc1-c1nc2c(N[C@H]3[C@@H](C(N)=O)[C@@H]4C=C[C@H]3C4)c(Cl)cnc2[nH]1 [Compound LIII, (1S,2S,3R,4R)-3-[6-Chloro-2-(2-methoxy-3-morpholin-4-ylmethyl-phenyl)-3H-imidazo[4,5-b]pyridine-7-ylamino]-bicyclo[2.2.1]hept-5-ene-2-carboxylic acid amide]
100 to 1000	< 100	291	NC(=O)[C@@H]1[C@H](Nc2c(Cl)cnc3[nH]c(-c4ccc(C(=O)NCC(=O)O)cc4)nc23)[C@H]2C=C[C@@H]1C2 [Compound CCXXVIII, 2-(4-(7-((1R,2R,3S,4S)-3-carbamoylbicyclo[2.2.1]hept-5-en-2-ylamino)-6-chloro-3H-imidazo[4,5-b]pyridine-2-yl)benzamido)acetic acid]
100 to 1000	100 to 1000	172 to 177	CC(C)(C)OC(=O)N1CCCC(c2nc3c(N[C@H]4[C@@H](C(N)=O)[C@@H]5C=C[C@H]4C5)c(Br)cnc3[nH]2)C1 (stereo partly drawn) [Compound LXXXII, 3-[6-Bromo-7-((1R,2R,3S,4S)-3-carbamoyl-bicyclo[2.2.1]hept-5-en-2-ylamino)-3H-imidazo[4,5-b]pyridin-2-yl]-piperidine-1-carboxylic acid tert-butyl]
100 to 1000	< 100	200 to 201	Cc1ccc(-c2nc3c(N[C@H]4[C@@H](C(N)=O)[C@@H]5C=C[C@H]4C5)c(Br)cnc3[nH]2)o1 [Compound CX, (1S,2S,3R,4R)-3-[6-Bromo-2-(5-methyl-furan-2-yl)-3H-imidazo[4,5-b]pyridin-7-ylamino]-bicyclo[2.2.1]hept-5-ene-2-carboxylic acid amide]
< 100	100 to 1000	160	COc1ccncc1-c1nc2c(N[C@H]3[C@@H](C(N)=O)[C@@H]4C=C[C@H]3C4)c(Br)cnc2[nH]1 [Compound CIII, (1S,2S,3R,4R)-3-[6-Bromo-2-(4-methoxy-pyridin-3-yl)-3H-imidazo[4,5-b]pyridin-7-ylamino]-bicyclo[2.2.1]hept-5-ene-2-carboxylic acid amide]
< 100	< 100	185 to 195	COc1cc(N2CCC(N3CCN(C)CC3)CC2)ccc1-c1nc2c(N[C@H]3[C@@H](C(N)=O)[C@@H]4C=C[C@H]3C4)c(Br)cnc2[nH]1 [Compound XCVIII, (1S,2S,3R,4R)-3-(6-Bromo-2-{2-methoxy-4-[4-(4-methyl-piperazin-1-yl)-piperidin-1-yl]-phenyl}-3H-imidazo[4,5-b]pyridin-7-ylamino)-bicyclo[2.2.1]hept-5-ene-2-carboxylic acid amide]
